Measurements as given in patent publication US20240190855A1 (Relay Therapeutics, Inc., priority 2021, published 2024).

biological target: T1, CDK2/Cyclin E complex (Homo sapiens, UniProt P24941); experiment: CDK2/Cyclin E fluorescence-based microfluidic mobility shift assay (CDK2 Biochemical Caliper Assay); conditions: read-out: Biochemical CDK2/CyclinE Caliper IC50
T1 construct: purchased Eurofins 14-475
Summary of the method: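 Microfluidic mobility-shift readout after EDTA termination measured phosphorylation of fluorescent FL Peptide 18 (1.5 uM final) in a 20 hr room-temperature reaction. Compounds were tested at 11 concentrations (3-fold).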

Row | Compound | IC50 [nM]
1 | COCc1nc2ccnc(Nc3cc([C@H]4CC[C@@H](OC(=O)NC(C)C)C4)[nH]n3)c2s1 (single isomer, unassigned) [Example 398] | ≤ 100
2 | CC[C@@H](C)NC(=O)O[C@H]1CO[C@@H](c2cc(Nc3nccn4nc(COC)cc34)n[nH]2)C1 [Example 654] | ≤ 100
3 | CNC(=O)O[C@H]1CC[C@@H](c2cc(Nc3ccc4c(n3)C(C)(C)NC4=O)n[nH]2)C1 (single isomer, unassigned) [Example 530] | ≤ 100
4 | Cc1cc(CC(=O)Nc2cc([C@@H]3CC[C@H](N(C)C(=O)NC(C)C)C3)[nH]n2)on1 (single isomer, unassigned) [Example 103] | 1000 to 100000
5 | COCc1nc2ccnc(Nc3cc([C@H]4C[C@@H](OC(=O)NC5(COC)CC5)CO4)[nH]n3)c2s1 [Example 682] | ≤ 100
6 | COCc1nc2cc(Nc3cc([C@H]4CC[C@@H](OC(=O)NC(C)C)C4)[nH]n3)ncc2s1 (single isomer, unassigned) [Example 111] | 250 to 1000
7 | COCc1cc2c(Nc3cc([C@H]4C[C@@H](OC(=O)NC(C)(C)CN5CCOCC5)CO4)[nH]n3)nccn2n1 [Example 703] | 250 to 1000
8 | CC(C)NC(=O)O[C@H]1CO[C@@H](c2cc(Nc3ccc4c(c3)C(C)(C)NC4=O)n[nH]2)C1 (single isomer, unassigned) [Example 549] | ≤ 100
9 | COCc1cc(C(=O)Nc2cc([C@@H]3CC[C@H](Oc4ccc(C(C)C)nn4)C3)[nH]n2)n(C)n1 (single isomer, unassigned) [Example 449] | 1000 to 100000
10 | COCc1nc2cc(Nc3cc([C@@H]4CC[C@H](OC(=O)NC(C)C)C4)[nH]n3)ncc2s1 (single isomer, unassigned) [Example 112] | 100 to 250
11 | Cc1cc(CC(=O)Nc2cc([C@@H]3CC[C@H](Oc4ccccc4C(C)C)C3)[nH]n2)on1 (single isomer, unassigned) [Example 390] | 100 to 250
12 | COCc1cc(C(=O)Nc2cc([C@H]3C[C@@H](COc4nscc4C4CC4)C3)[nH]n2)n(C)n1 [Example 454] | ≤ 100
13 | COCc1cc2c(Nc3cc([C@@H]4CC[C@H](Oc5cccnc5)C4)[nH]n3)nccn2n1 (single isomer, unassigned) [Example 526] | 100 to 250
14 | Cc1cc(C)nc(Nc2cc(C3CCCC3)[nH]n2)n1 [Example 806] | 1000 to 100000
15 | CC(C)NC(=O)O[C@H]1CO[C@@H](c2cc(Nc3nccn4nc(CN5CCCC5)cc34)n[nH]2)C1 [Example 676] | ≤ 100
16 | CC1(NC(=O)O[C@H]2CO[C@@H](c3cc(Nc4ccnc5nc[nH]c45)n[nH]3)C2)CC1 [Example 737] | 100 to 250
17 | CC(C)NC(=O)O[C@H]1CC[C@@H](c2cc(Nc3ncnc4ncsc34)n[nH]2)C1 [Example 426] | ≤ 100
18 | COCc1cc(C(=O)Nc2cc([C@H]3C[C@H](COc4nscc4C4CC4)C3)[nH]n2)n(C)n1 [Example 455] | 1000 to 100000
19 | COCc1cc(C(=O)Nc2cc([C@@H]3CC[C@H](c4ncc(C)cn4)C3)[nH]n2)n(C)n1 (single isomer, unassigned) [Example 594] | 1000 to 100000
20 | Cc1cn2nc(Nc3cc(C4CCCC4)[nH]n3)cc(C)c2n1 [Example 832] | 1000 to 100000
21 | Cn1nc(COC(F)(F)F)cc1C(=O)Nc1ncc([C@H]2C[C@@H](OC(=O)NC3(C)CC3)CO2)s1 (single isomer, unassigned) [Example 903] | ≤ 100

Row | Compound | IC50 [nM]
22 | Fc1cnc(Nc2cc(C3CCCC3)[nH]n2)c2ccccc12 [Example 860] | 1000 to 100000
23 | COCc1cc(C(=O)Nc2cc([C@H]3CC[C@@H](c4ccc(C(C)C)cn4)C3)[nH]n2)n(C)n1 (single isomer, unassigned) [Example 552] | 1000 to 100000
24 | COCc1cc2c(Nc3cc([C@@H]4CC[C@H](Oc5cccnc5C)C4)[nH]n3)nccn2n1 (single isomer, unassigned) [Example 512] | 100 to 250
25 | C[C@H]1CC[C@H](C)N1C(=O)OC[C@H]1C[C@@H](c2cc(Nc3ccc4c(n3)C(C)(C)NC4=O)n[nH]2)C1 (racemic) [Example 593] | ≤ 100
26 | CC(C)c1ccnnc1OC[C@H]1C[C@H](c2cc(Nc3nccc4ncsc34)n[nH]2)C1 [Example 439] | 1000 to 100000
27 | Cc1cc(CC(=O)Nc2cc([C@@H]3CC[C@H](Oc4nscc4C4CC4)C3)[nH]n2)on1 (single isomer, unassigned) [Example 128] | ≤ 100
28 | CC[C@H](C)NC(=O)O[C@H]1CO[C@@H](c2cc(Nc3ccc4c(n3)C(C)(C)NC4=O)n[nH]2)C1 [Example 736] | ≤ 100
29 | CC(C)c1ccnnc1O[C@H]1CC[C@@H](c2cc(Nc3nccc4ncsc34)n[nH]2)CC1 [Example 412] | ≤ 100
30 | COCc1cc2c(Nc3cc([C@H]4C[C@@H](OC(=O)N[C@H](C)C(F)(F)F)CO4)[nH]n3)nccn2n1 [Example 720] | ≤ 100
31 | COCc1cc2c(Nc3cc([C@H]4C[C@@H](OC(=O)NC5(COC)CC5)CO4)[nH]n3)nccn2n1 [Example 668] | ≤ 100
32 | Cc1cc(CC(=O)Nc2cc([C@@H]3CC[C@@H](N(C)C(=O)NC(C)C)C3)[nH]n2)on1 (single isomer, unassigned) [Example 142] | 1000 to 100000
33 | Cc1ncccc1O[C@@H]1CC[C@H](c2cc(Nc3ncnc4ncccc34)n[nH]2)C1 (single isomer, unassigned) [Example 486] | 1000 to 100000
34 | COCc1cc2c(Nc3cc([C@H]4C[C@@H](OC(=O)N[C@H](C)C5(C)COC5)CO4)[nH]n3)nccn2n1 [Example 685] | 1000 to 100000
35 | COCc1cc(C(=O)Nc2cc([C@H]3CC[C@@H](c4ccc(C)cn4)C3)[nH]n2)n(C)n1 (single isomer, unassigned) [Example 597] | 1000 to 100000
36 | COCc1cc(C(=O)Nc2cc([C@H]3CC[C@@H](Oc4nscc4C4CC4)C3)[nH]n2)n(C)n1 (single isomer, unassigned) [Example 414] | ≤ 100
37 | COCc1cc(C(=O)Nc2cc([C@@H]3CC[C@H](Oc4ncccc4C(C)C)C3)[nH]n2)n(C)n1 (single isomer, unassigned) [Example 507] | ≤ 100
38 | COC12CC(NC(=O)O[C@H]3CO[C@@H](c4cc(NC(=O)c5cc(COC(F)(F)F)nn5C)n[nH]4)C3)(C1)C2 [Example 913] | ≤ 100
39 | Cc1cc(CC(=O)Nc2cc([C@H]3C[C@@H]4C[C@@H]4C3)[nH]n2)on1 [Example 50] | 1000 to 100000
40 | COCc1cc(C(=O)Nc2cc([C@H]3CC[C@@H](Oc4cc(C(C)C)cnn4)C3)[nH]n2)n(C)n1 (single isomer, unassigned) [Example 492] | ≤ 100
41 | c1cncc(O[C@H]2CC[C@@H](c3cc(Nc4nccn5nccc45)n[nH]3)C2)c1 (single isomer, unassigned) [Example 505] | ≤ 100
42 | COCc1cc2c(Nc3cc([C@@H]4C[C@H](Oc5nncn5C(C)C)CO4)[nH]n3)nccn2n1 [Example 715] | ≤ 100

Row | Compound | IC50 [nM]
43 | Cn1nc(COC(F)F)cc1C(=O)Nc1cc([C@H]2C[C@@H](OC(=O)NC3(C)CC3)CO2)[nH]n1 [Example 753] | ≤ 100
44 | Cc1cc(CC(=O)Nc2cc([C@H]3CC[C@@H](n4cc(C(C)C)[nH]c4=O)C3)[nH]n2)on1 (single isomer, unassigned) [Example 93] | 1000 to 100000
45 | c1cnc(Nc2cc(C34CCC(CC3)C4)[nH]n2)nc1 [Example 314] | 1000 to 100000
46 | COCc1cc(C(=O)Nc2cc([C@@H]3CC[C@@H](c4ccc(C(C)C)cn4)C3)[nH]n2)n(C)n1 (racemic) [Example 571] | 1000 to 100000
47 | CC(C)NC(=O)OC[C@H]1C[C@@H](c2cc(NC(=O)c3cc(COC(F)(F)F)nn3C)n[nH]2)C1 [Example 646] | ≤ 100
48 | Cn1nc(COC(F)(F)F)cc1C(=O)Nc1cc([C@H]2C[C@@H](OC(=O)NC3(C)COC3)CO2)[nH]n1 [Example 888] | ≤ 100
49 | C[C@H](NC(=O)O[C@H]1CO[C@@H](c2cc(Nc3ccc4c(n3)C(C)(C)NC4=O)n[nH]2)C1)C1CC1 [Example 740] | ≤ 100
50 | CC(C)NC(=O)OC[C@H]1C[C@@H](c2cc(Nc3nccc4ncsc34)n[nH]2)C1 [Example 456] | ≤ 100
51 | Cn1nc(C(F)(F)F)cc1C(=O)Nc1cc([C@H]2C[C@@H](OC(=O)NC3(C)CC3)CO2)[nH]n1 [Example 770] | ≤ 100
52 | COCc1cc2c(Nc3cc([C@H]4C[C@@H](OC(=O)NC5(CC(F)(F)F)CC5)CO4)[nH]n3)nccn2n1 [Example 643] | ≤ 100
53 | COCc1cc(C(=O)Nc2cc([C@H]3CC[C@H](c4cnc(C)cn4)C3)[nH]n2)n(C)n1 (single isomer, unassigned) [Example 579] | 1000 to 100000
54 | COCc1cc2c(Nc3cc([C@H]4C[C@@H](OC(=O)N[C@@]5(C)CC5(F)F)CO4)[nH]n3)nccn2n1 (single isomer, unassigned) [Example 731] | ≤ 100
55 | COCc1cc(C(=O)Nc2cc([C@@H]3CC[C@H](Oc4cccnc4C(F)F)C3)[nH]n2)n(C)n1 (single isomer, unassigned) [Example 503] | 1000 to 100000
56 | Cc1cnc(Nc2cc(C3CCCC3)[nH]n2)c(C)n1 [Example 862] | 1000 to 100000
57 | CC(C)c1ccnnc1O[C@@H]1CC[C@H](c2cc(Nc3nccc4ncsc34)n[nH]2)C1 [Example 436] | ≤ 100
58 | CC(C)NC(=O)N[C@H]1CC[C@@H](c2cc(Nc3ncccn3)n[nH]2)C1 (single isomer, unassigned) [Example 124] | 1000 to 100000
59 | CC(C)NC(=O)O[C@@H]1CC[C@H](c2cc(Nc3ccsn3)n[nH]2)C1 (single isomer, unassigned) [Example 114] | 1000 to 100000
60 | COCc1cc(C(=O)Nc2cc([C@H]3CC[C@@H](Oc4cnccc4C)C3)[nH]n2)n(C)n1 (single isomer, unassigned) [Example 366] | 1000 to 100000
61 | COCc1cc(C(=O)Nc2cc([C@@H]3CC[C@H](Oc4ccc(C)nc4)C3)[nH]n2)n(C)n1 (single isomer, unassigned) [Example 396] | 1000 to 100000
62 | COCc1cc2c(Nc3cc([C@H]4C[C@@H](OC(=O)NC(C)(C)C#N)CO4)[nH]n3)nccn2n1 [Example 717] | ≤ 100
63 | COCc1cc2c(Nc3cc([C@@H]4C[C@H](OC(=O)NC56CC(C5)C6)CO4)[nH]n3)nccn2n1 [Example 767] | ≤ 100
